Measured values as given in patent US20260232846A1, “FLUORESCENT PROBE COMPOUND AND COMPOSITE COMPRISING SAME” (KOREA RESEARCH INSTITUTE OF BIOSCIENCE AND BIOTECHNOLOGY, priority 2022, published 2026).

Legend:
[1] = tested on: MC3T3-E1 cells; test: Dephosphorylation of probe compounds on cell-cultured CDHA (fluorescence images, radiant efficiency); format: cell-based; conditions: CDHA specimen cultured with cells, treated with probe; diffused ALP hydrolysis increased over time in MC3T3-E1 cells
Protocol: In order to confirm the dephosphorylation of the fluorescent probe compounds by ALP or pH change on CDHA, three bare CDHA specimens and three CDHA specimens cultured with MC3T3-E1 cells and Raw264.7 cells were prepared, the results of examining fluorescence images obtained by treating, the three specimens, one of which was treated with the bone-forming activity marker-sensitive fluorescent probe compound of Synthetic Example 1, another of which was treated with the bone-resorbing activity marker-sensitive fluorescent probe compound of Synthetic Example 2, and the remaining one of which was treated with both the bone-forming activity marker-sensitive fluorescent probe compound and the bone-resorbing activity marker-sensitive fluorescent probe compound, were illustrated in FIG. 11, and the results of measuring fluorescence efficiency (radiant efficiency) in each of six specimens were illustrated in FIGS. 12A and 12B.

[2] = tested on: MC3T3-E1 cells
[3] = tested on: Raw264.7 cells

Row | Compound | fluorescence signal (radiant efficiency) [1] | cell proliferation (%) [2] [%] | cell proliferation (%) [3] [%]
1 | CC1(C)C(/C=C/C2=C3Oc4cc(OCc5ccc(OP(=O)(O)O)cc5)ccc4C=C3CCC2)=[N+](CCCCC(=O)NCCCC(O)(P(=O)(O)O)P(=O)(O)O)c2ccccc21 [compound 1-7] | high fluorescence signal |  | 
2 | calcium deficient hydroxyapatite [CDHA] |  | ~170 | ~170
